Assay results as given in PubChem BioAssay (NCI).
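Dose response: 5 concentrations. Exposure: 48 h. Format: 96-well plates. Endpoint: linear interpolation; highest concentration if not reached. GI50 is the concentration that inhibits growth by half. TGI: concentration producing complete growth inhibition.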

Columns and labels:
Experiment in all cases: DTP human tumour cell line panel, 48 h
[1] = system: DU-145 prostate
[2] = system: HOP-92 NSCLC
[3] = system: KM12 colon
[4] = system: OVCAR-3 ovarian
[5] = system: OVCAR-4 ovarian
[6] = system: PC-3 prostate
[7] = system: SK-MEL-5 melanoma
[8] = system: EKVX NSCLC
[9] = system: SF-539 CNS
[10] = system: BT-549 breast

| Compound | GI50 [1] [µM] | TGI [1] [µM] | GI50 [2] [µM] | TGI [2] [µM] | GI50 [3] [µM] | TGI [3] [µM] | GI50 [4] [µM] | TGI [4] [µM] | GI50 [5] [µM] | TGI [5] [µM] | GI50 [6] [µM] | TGI [6] [µM] | GI50 [7] [µM] | TGI [7] [µM] | TGI [8] [µM] | TGI [9] [µM] | GI50 [10] [µM] | TGI [10] [µM] | GI50 [8] [µM] | GI50 [9] [µM] |
| --- | --- | --- | --- | --- | --- | --- | --- | --- | --- | --- | --- | --- | --- | --- | --- | --- | --- | --- | --- | --- |
| Cc1ccc(N2C(=O)C(Cl)=C(Nc3cccc(O)c3)C2=O)cc1Cl | 16.9 | 31.5 | 15.7 | 37.6 | 17 | 31.6 | 15.3 | 28.9 | 26.9 | 76.3 | 12.5 | 30.9 | 15 | 28.9 |  |  |  |  |  |  |
| CCCN(CCCCC(NC(C)=O)C(=O)NCc1ccccc1)C(=O)NC (stereo unspecified) |  |  |  | > 100 |  | > 100 |  | > 100 |  | > 100 |  |  |  | > 100 | > 100 | > 100 |  |  |  |  |
| CC/C=C\C[C@H](O)C/C=C1/C(=O)C=C[C@@H]1C/C=C\CCCC(N)=O | 2.5 | 11 | 3.15 | 6.74 | 1.68 | 4.21 | 1.26 | 4.22 | 3.45 | 16.8 | 2.15 | 5.36 | 1.56 | 2.97 | 15.7 |  | 2.17 | 5.54 | 4.29 |  |
| Cn1nnnc1[N-]Cc1ccccc1.[Au+].c1ccc([PH+](c2ccccc2)c2ccccc2)cc1 |  |  | 2.44 | 4.68 | 11.1 | 38 | 2.47 | 5.2 | 1.99 | 5.42 |  |  | 1.6 | 3.6 | 5.78 | 23.2 |  |  | 4.08 | 8.93 |
| O=C1OCC2=Nc3cccc4cccc(c34)N12 |  | > 100 |  |  |  | > 100 |  | > 100 |  | > 100 |  | > 100 |  | > 100 | > 100 | > 100 |  | > 100 |  |  |
| COC(=O)/C(=N/NC(C)(C)C)C(C(=O)C=C(C)C)C(=O)C(=O)Nc1ccc(Cl)cc1C (stereo unspecified) |  |  |  |  |  | > 100 |  | > 100 |  | > 100 |  |  |  | > 100 | > 100 | > 100 |  |  |  |  |
| CCOC(=O)c1c2ccc(/C=C/C(=O)OC)ccc-2c(C(=O)OCC)c1N |  |  |  | > 100 |  | > 100 |  | > 100 |  | > 100 |  |  |  | > 100 | > 100 | > 100 |  |  |  |  |
| CCOC(=O)/C(C1=CC(=O)C(=O)c2ccccc21)=C(/C)NCc1ccccc1 | 1.79 | 3.32 | 1.4 | 3.52 |  |  | 0.218 | 0.935 | 3.12 | 56.7 | 1.23 | 2.48 | 1.78 | 3.38 | 5.06 | 2.65 | 3.29 | 6.18 | 2.33 | 1.06 |
| CC(SC1=CC(=O)c2c(O)ccc(O)c2C1=O)C(=O)O (stereo unspecified) |  |  |  | > 83.1 |  | > 100 |  | 53.1 |  | 35 |  |  |  | > 100 | > 100 | > 100 |  |  |  |  |
| CN(C)CCNC(=O)c1cc([N+](=O)[O-])cc2ccc(-c3ccccc3)nc12 |  |  |  | 27.4 |  | 49.6 |  | 54.3 |  | 13 |  |  |  | 11.8 | > 71.4 | 27.2 |  |  |  |  |
| O=C1c2cccc3cc([N+](=O)[O-])cc(c23)C(=O)N1CCCN1CCN(CCCN2C(=O)c3cccc4cc([N+](=O)[O-])cc(c34)C2=O)CC1 |  |  |  | 5.2 |  |  |  | 4.81 |  | 5.96 |  |  |  | 2.37 | > 100 | 12 |  |  |  |  |
| [Cl][Sn]([c]1ccccc1)[c]1ccccc1 |  |  | 3.61 | 8.69 | 12.4 | 18 | 11.4 | 24.1 | 15.2 | 29.8 |  |  | 3.35 | 11.2 | 15.5 | 22.6 |  |  | 6.57 | 9.43 |
| NC(N)=N/N=C/c1c(-c2cc(Cl)sc2Cl)nc2n1CCS2 |  |  |  |  | 8.33 | 16.1 | 8.81 | 17.3 |  |  | 8.2 | 15.2 | 10.1 | 18.2 | 18.1 | 15.2 | 8.51 | 17.3 | 9.21 | 7.43 |
| Cn1cc(NC(=O)c2cc(NC(=O)CCCCCC(=O)Nc3cc(C(=O)Nc4cc(C(=O)NCCC(=N)N)n(C)c4)n(C)c3)cn2C)cc1C(=O)NCCC(=N)N |  |  |  | > 100 |  | > 100 |  | > 100 |  | > 100 |  |  |  | > 100 | > 100 | > 100 |  |  |  |  |
| CCCN(CCC)c1c([N+](=O)[O-])cc(S(N)(=O)=O)cc1[N+](=O)[O-] |  |  |  |  |  | 34.3 |  | 31.8 |  | 26.9 |  |  |  | 33.5 | 37.5 | 35.9 |  |  |  |  |
| CN(C)CCNc1cccc2sc3ccc(O)cc3c(=O)c12 | 1.12 | 11.2 |  |  | 3.22 | 14.3 | 3.28 | 11.5 | 2.75 | 12.3 | 2.44 | 13.4 | 1.69 | 3.25 |  | 4.01 | 9.2 | 23.5 |  | 1.77 |
| CN(C)CCNC(=O)c1cccc(CO)c1[N+](=O)[O-] |  | > 100 |  |  |  | > 100 |  | > 100 |  |  |  | > 100 |  | > 100 |  | > 100 |  | > 100 |  |  |
| c1cc2c(cnc3cscc32)s1 |  |  |  | > 100 |  | > 100 |  | > 100 |  | > 100 |  |  |  | > 100 |  | > 100 |  |  |  |  |
| CCC(=O)N1C/C(=C/c2ccc(OC)cc2)C(=O)/C(=C/c2ccc(OC)cc2)C1 | 2.91 | 10.6 | 2.11 | 7.77 | 1.38 | 2.85 | 1.82 | 3.73 | 3.37 | > 100 | 2.17 | 7.94 | 1.62 | 3.04 |  | 3.1 | 1.88 | 3.5 |  | 1.62 |
